According to patent US8993760B2, “Rock inhibitors and uses thereof” (University of South Florida, priority 2006, dated 2015):
Where two headings read alike, the source gives them in different places.

Molecular target: Rho-kinase (ROCK1) (Homo sapiens, UniProt Q13464)
Experiment: Rho-kinase (ROCK1) inhibition
Type: biochemical
Details: for % Inhibition / Inhibition: concentration not given
[1] = Table 2, first number of the cell
[2] = Table 3, first number of the cell
[3] = Table 1, first number of the cell
[4] = read-out: IC50, inhibitory activity against Rho-kinase activity

Sequence of Rho-kinase (ROCK1) (Q13464 whole entry, species assumed): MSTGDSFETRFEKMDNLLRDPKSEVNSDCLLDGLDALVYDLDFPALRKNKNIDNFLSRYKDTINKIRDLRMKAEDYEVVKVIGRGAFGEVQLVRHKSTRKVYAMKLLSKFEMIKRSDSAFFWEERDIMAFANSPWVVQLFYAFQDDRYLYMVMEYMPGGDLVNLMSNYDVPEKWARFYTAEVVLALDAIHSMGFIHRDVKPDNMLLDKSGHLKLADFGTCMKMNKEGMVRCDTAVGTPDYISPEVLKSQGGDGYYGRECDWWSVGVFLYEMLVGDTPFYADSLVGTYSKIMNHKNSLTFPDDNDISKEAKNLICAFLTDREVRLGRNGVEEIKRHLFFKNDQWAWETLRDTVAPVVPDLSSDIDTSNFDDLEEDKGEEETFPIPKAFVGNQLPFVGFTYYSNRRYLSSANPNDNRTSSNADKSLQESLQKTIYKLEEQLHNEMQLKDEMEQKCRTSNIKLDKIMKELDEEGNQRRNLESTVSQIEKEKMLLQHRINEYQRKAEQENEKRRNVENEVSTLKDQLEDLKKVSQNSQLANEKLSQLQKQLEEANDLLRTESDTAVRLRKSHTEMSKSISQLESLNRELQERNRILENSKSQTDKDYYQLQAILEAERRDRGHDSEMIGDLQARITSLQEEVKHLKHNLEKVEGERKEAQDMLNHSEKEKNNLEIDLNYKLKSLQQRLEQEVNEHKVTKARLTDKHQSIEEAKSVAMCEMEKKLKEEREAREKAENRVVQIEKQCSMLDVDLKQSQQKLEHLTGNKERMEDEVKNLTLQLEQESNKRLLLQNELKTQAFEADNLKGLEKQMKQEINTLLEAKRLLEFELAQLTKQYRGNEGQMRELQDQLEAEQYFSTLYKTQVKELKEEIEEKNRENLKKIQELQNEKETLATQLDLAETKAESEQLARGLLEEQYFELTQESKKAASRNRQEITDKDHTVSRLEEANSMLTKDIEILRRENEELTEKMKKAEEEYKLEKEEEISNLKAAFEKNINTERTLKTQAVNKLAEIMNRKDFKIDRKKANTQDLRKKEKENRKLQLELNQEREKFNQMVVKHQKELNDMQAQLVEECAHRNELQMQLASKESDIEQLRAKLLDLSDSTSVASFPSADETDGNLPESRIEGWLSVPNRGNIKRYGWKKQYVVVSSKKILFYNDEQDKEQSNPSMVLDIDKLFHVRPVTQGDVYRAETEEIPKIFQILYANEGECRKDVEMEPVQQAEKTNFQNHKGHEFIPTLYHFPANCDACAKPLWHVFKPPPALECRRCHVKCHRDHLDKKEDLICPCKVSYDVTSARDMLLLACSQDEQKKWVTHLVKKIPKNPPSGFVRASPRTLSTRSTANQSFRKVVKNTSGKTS

## CSCC[C@@H]1NC(=O)CN(Cc2ccccc2)C1=O [Compound 3b]
[1]
  % Inhibition: 78%

## c1ccc(C[C@H]2CN(Cc3cccc4cnccc34)CCN2)cc1 [IP-IV-29]
[2]
  Inhibition: 16 IC50 = 16 μM
Table 3, read-out: IC50
  IC50: 16 µM

## O=C(Nc1cccc2cnccc12)OC1CCN(Cc2ccccc2)CC1 [IP-IV-115]
Table 5
  % Inhibition: 50%

## Cl.O=C(O)C1CCN(C(=O)Nc2ccncc2)CC1 [Compound 8]
Table 4
  Inhibition (@ 100 μM): 1.59 (@ 100 μM)

## CC(C)[C@H]1CN(C(=O)c2cccc3cnccc23)CCN1 [IP-IV-103]
[2]
  Inhibition: 81

## O=C(Nc1ccncc1)OC1CCN(Cc2ccccc2)CC1 [Compound 14b]
Table 4, read-out: IC50
  IC50: 56 µM

## CSCC[C@H]1CN(Cc2cccc3ccccc23)CCN1 [Compound 6b]
Table 2
  % Inhibition (@ 100 μM): 11.9%
[1]
  % Inhibition: 62%

## O=C1CN(Cc2ccncc2)C(=O)[C@H](Cc2ccccc2)N1 [Compound 1e]
[1]
  % Inhibition: ~20%

## O=C(Nc1ccncc1)N1CCCN(Cc2ccccc2)CC1 [Compound 9]
Table 4
  Inhibition (@ 100 μM): 21.0 (@ 100 μM)

## c1ccc(C[C@H]2CN(Cc3cccc4ccccc34)CCN2)cc1 [Compound 6e, N-Naphtylmethyl-3-benzyl piperazine]
  inhibitory activity / disruption of Rho-kinase activity (in words): particular effectiveness
Table 2
  % Inhibition (@ 100 μM): 20.4%
[1]
  % Inhibition: 75%

## CCOC(=O)C1CCN(C(=O)Nc2ccncc2)CC1 [Compound 7]
Table 4
  Inhibition (@ 100 μM): 6.29 (@ 100 μM)

## OC[C@H]1CN(Cc2ccncc2)CCN1 [Compound 2d]
Table 2
  % Inhibition (@ 100 μM): 3.73%
[1]
  % Inhibition: 20%

## O=C1CN(Cc2cccc3ccccc23)C(=O)[C@H](Cc2ccccc2)N1 [Compound 5e]
Table 2
  % Inhibition (@ 100 μM): −1.87%
[1]
  % Inhibition: 71%

## CSCC[C@H]1CN(Cc2ccncc2)CCN1 [Compound 2b]
Table 2
  % Inhibition (@ 100 μM): 4.35%
[1]
  % Inhibition: 36%

## c1ccc([C@H]2CN(c3cccc4cnccc34)CCN2)cc1 [IP-IV-67]
[3]
  % Inhibition: 67%
Table 1, read-out: IC50
  IC50: 3.5 µM

## CC(C)[C@H]1CN(Cc2cccc3cnccc23)CCN1 [IP-IV-107]
[2]
  Inhibition: 29
Table 3, read-out: IC50
  IC50: 22 µM

## CSCC[C@@H]1NC(=O)CN(Cc2ccncc2)C1=O [Compound 1b]
Table 2
  % Inhibition (@ 100 μM): 1.96%
[1]
  % Inhibition: 25%

## O=C(Nc1ccncc1)NC1CCNCC1 [Compound 15a]
Table 4, read-out: IC50
  IC50: 55 µM

## CC(C)(C)OC(=O)N1CCN(c2ccnc3ccccc23)C[C@@H]1COCc1ccccc1 [IP-IV-35]
[3]
  % Inhibition: 54%

## CC(C)(C)OC(=O)N1CCN(c2cccc3cnccc23)C[C@@H]1COCc1ccccc1 [IP-IV-43]
Table 1
  % Inhibition (@ 100 μM): 4.73%
[3]
  % Inhibition: 49%

## O=C(CN1CCCN(Cc2ccccc2)CC1)Nc1ccncc1 [IP-IV-73]
Table 5
  % Inhibition (@ 100 μM): 13.31 (@ 100 μM) %

## CSCC[C@H]1CN(Cc2ccccc2)CCN1 [Compound 4b]
Table 2
  % Inhibition (@ 100 μM): 0.53%
[1]
  % Inhibition: 60%

## O=C(CN1CCCNCC1)Nc1ccncc1 [IP-IV-81]
Table 5
  % Inhibition (@ 100 μM): 30.61 (@ 100 μM) %

## CCOC(=O)C1CCN(CC(=O)Nc2ccncc2)CC1 [IP-IV-39]
Table 5
  % Inhibition (@ 100 μM): −1.46 (@ 100 μM) %

## c1ccc(COC[C@H]2CN(c3ccnc4ccccc34)CCN2)cc1 [IP-IV-49]
  inhibitory activity / disruption of Rho-kinase activity (in words): potent disrupters of active Rho-kinase
[3]
  % Inhibition: 85%

## O=C(c1cccc2ncccc12)N1CCNC(Cc2ccccc2)C1 (stereo not drawn) [IP-IV-109 R = O]
Table 3
  Inhibition (@ 100 μM): 1.55 (@ 100 μM)

## O=C(c1cccc2cnccc12)N1CCN[C@@H](Cc2ccccc2)C1 [IP-IV-15]
[2]
  Inhibition: 70

## O=C(Nc1ccncc1)N1CCCNCC1 [Compound 10]
Table 4
  Inhibition (@ 100 μM): 16.7 (@ 100 μM)

## c1ccc(C[C@H]2CN(Cc3cccc4ncccc34)CCN2)cc1 [IP-IV-109 R = H2]
Table 3, read-out: IC50
  IC50: 67 µM

## O=C(Nc1ccncc1)OC1CCNCC1 [Compound 16b]
  inhibitory activity / disruption of Rho-kinase activity (in words): potent disrupters of active Rho-kinase
[4]
  IC50: 7.5 µM

## O=C(Nc1cccc2cnccc12)NC1CCCCCC1 [IP-IV-129]
Table 5
  % Inhibition: 50%

## O=C(Nc1ccncc1)N1CCN[C@@H](Cc2ccccc2)C1 [Compound 12b]
  inhibitory activity / disruption of Rho-kinase activity (in words): potent disrupters of active Rho-kinase
[4]
  IC50: 14 µM

## CC(C)(C)OC(=O)N1CCN(c2ccnc3ccccc23)C[C@@H]1Cc1ccccc1 [IP-IV-33]
[3]
  % Inhibition: 47%

## O=C(Nc1ccncc1)NC1CCN(Cc2ccccc2)CC1 [Compound 14a]
Table 4, read-out: IC50
  IC50: 90 µM

## O=C1CN(Cc2ccncc2)C(=O)[C@H](CO)N1 [Compound 1d]
Table 2
  % Inhibition (@ 100 μM): 1.73%
[1]
  % Inhibition: 45%

## O=C1CN(Cc2ccccc2)C(=O)[C@H](Cc2ccccc2)N1 [Compound 3e]
Table 2
  % Inhibition (@ 100 μM): 0.75%
[1]
  % Inhibition: 61%

## CC(C)[C@H]1CN(C(=O)c2cccc3cnccc23)CCN1C(=O)OC(C)(C)C [IP-IV-89]
[2]
  Inhibition: 82

## CSCC[C@@H]1NC(=O)CN(Cc2cccc3ccccc23)C1=O [Compound 5b]
Table 2
  % Inhibition (@ 100 μM): −1.48%
[1]
  % Inhibition: 93%

## CC(C)(C)OC(=O)N1CCN(c2cccc3cnccc23)C[C@@H]1Cc1ccccc1 [IP-IV-41]
  inhibitory activity / disruption of Rho-kinase activity (in words): potent disrupters of active Rho-kinase
Table 1
  % Inhibition (@ 100 μM): 9.71%
[3]
  % Inhibition: 83%

## CC(C)(C)OC(=O)N1CCN(C(=O)c2cccc3cnccc23)C[C@@H]1Cc1ccccc1 [IP-III-153]
[2]
  Inhibition: 91

## O=C(Nc1ccncc1)N1CCN[C@@H](COCc2ccccc2)C1 [Compound 12a]
Table 4
  Inhibition (@ 100 μM): 9.58

## c1ccc(C[C@H]2CN(c3ccnc4ccccc34)CCN2)cc1 [IP-IV-47]
[3]
  % Inhibition: 43%

## O=C(Nc1cccc2cnccc12)N1CCCN(Cc2ccccc2)CC1 [IP-IV-105]
Table 5
  % Inhibition (@ 100 μM): −0.85 (@ 100 μM) %
